Assay results taken from US20250339569A1, “CARBONIC ANHYDRASE IX LIGANDS” (priority 2021, published 2025).
Starred links: 1 amine or outer side, 2 acyl side, 3 side chain; linkers in the order of their positions; H or OH if unused. Positions of bridges follow the written chain, without caps; N, C: chain ends. Non-standard residues stand in square brackets, D forms with d. Residues, ends and D or L forms follow the SMILES beside them. ξ: configuration not given here. *: point of attachment. NH(CH2)3NH(O2Oc(DOTA)) = O=C(O)CN1CCN(CC(=O)O)CCN(CC(=O)NCCOCCOCC(=O)NCCCN*)CCN(CC(=O)O)CC1; NH(CH2)3NHDOTA = O=C(O)CN1CCN(CC(=O)O)CCN(CC(=O)NCCCN*)CCN(CC(=O)O)CC1; DOTA = O=C(O)CN1CCN(CC(=O)O)CCN(CC(=O)*)CCN(CC(=O)O)CC1; X68 = CC1(C(=O)Nc2cccc(C[C@H](N[*:1])C(=O)[*:2])c2)CC1; Trp(5-OH) = N[C@@H](Cc1c[nH]c2ccc(O)cc12)C(=O)O; Cyclopropanecarbonyl(1-CN) = N#CC1(C(=O)*)CC1; Pyridine(3,5-bisCH2) = c1ncc(C[*:2])cc1C[*:1]; ξTrp(5-Me) = Cc1ccc2[nH]cc(CC(N)C(=O)O)c2c1; Bip = N[C@@H](Cc1ccc(-c2ccccc2)cc1)C(=O)O; Phe(4-NH2) = Nc1ccc(C[C@H](N)C(=O)O)cc1; mXylylene = c1cc(C[*:1])cc(C[*:2])c1; X2 = O=C(CN1CCC(N[*:1])CC1)[*:2]; Isonicotinoyl = O=C(c1ccncc1)*; αMeL = CC(C)C[C@](C)(N)C(=O)O; Tle = CC(C)(C)[C@H](N)C(=O)O; Isovaleryl = CC(C)CC(=O)*; Dab = NCC[C@H](N)C(=O)O; Bn = c1ccc(C*)cc1; Sar = CNCC(=O)O

target: T1, CAIX-expressing human HT-29 colorectal cancer cells (Homo sapiens, UniProt Q16790); test: FACS binding assay (IC50 determination, competition with tracer 3BP-2776 or 3BP-4149); conditions: FACS binding assay, HT-29 cells, competition with tracer 3BP-2776 (10 nM, biotin-labeled), 4° C., 1 hour; read-out: pIC50 category (activity) (converted)
T1 construct: CAIX-expressing human HT-29 colorectal cancer cells; host or cells: HT-29 human colorectal cancer cells
Procedure, shortened: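 HT-29 cells in FACS buffer (PBS, 1% FCS) at 500.000 cells/ml were exposed to compounds competing with a labelled tracer, with biotinylated compounds detected by 1 μg/mL APC-streptavidin for 30 min on ice. APC/Cy5 median fluorescence was read by flow cytometry and IC50 derived by 4PL fit.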

Compound	IC50 [nM]
CC(C)C[C@@H]1NC(=O)[C@H](Cc2cccc(NC(=O)C3(C)CC3)c2)NC(=O)[C@H](CC(=O)O)NC(=O)[C@H]2CCCN2C(=O)[C@H](CCC(=O)O)NC(=O)[C@@H](NC(=O)[C@H](Cc2ccc(O)cc2)NC(=O)[C@@H](NC(=O)CN2CCC(NC(=O)CN3CCN(CC(=O)O)CCN(CC(=O)O)CCN(CC(=O)O)CC3)CC2)C(C)C)CSCc2cccc(c2)CSC[C@@H](C(N)=O)NC(=O)[C@H](CO)NC(=O)[C@H](Cc2c[nH]c3ccccc23)NC(=O)[C@H]([C@@H](C)O)NC1=O [3BP-4234] ({DOTA}-[X2]VYCE[dP]D[X68]LTWSC-NH2; linker 4-13 via mXylylene)	< 10
CC(C)C[C@@H]1NC(=O)[C@H](Cc2c[nH]c3ccccc23)NC(=O)[C@H](CC(=O)O)NC(=O)[C@H]2CCCN2C(=O)[C@H](CCC(=O)O)NC(=O)[C@@H](NC(=O)[C@H](Cc2ccc(O)cc2)NC(=O)[C@@H](NC(=O)CN2CCC(NC(=O)CN3CCN(CC(=O)O)CCN(CC(=O)O)CCN(CC(=O)O)CC3)CC2)C(C)C)CSCc2cncc(c2)CSC[C@@H](C(N)=O)NC(=O)[C@H](CO)NC(=O)[C@H](Cc2c[nH]c3ccccc23)NC(=O)[C@H]([C@@H](C)O)NC1=O [3BP-4141] ({DOTA}-[X2]VYCE[dP]DWLTWSC-NH2; linker 4-13 via Pyridine(3,5-bisCH2))	100 to 794
CC(C)C[C@@H]1NC(=O)[C@H](Cc2ccc(-c3ccccc3)cc2)NC(=O)[C@H](CC(=O)O)NC(=O)[C@H]2CCCN2C(=O)[C@H](CCC(=O)O)NC(=O)[C@@H](NC(=O)[C@H](Cc2ccc(O)cc2)NC(=O)[C@@H](NC(=O)CN2CCC(NC(=O)CN3CCN(CC(=O)O)CCN(CC(=O)O)CCN(CC(=O)O)CC3)CC2)C(C)C)CSCc2cccc(c2)CSC[C@@H](C(N)=O)NC(=O)[C@H](CO)NC(=O)[C@H](Cc2c[nH]c3ccccc23)NC(=O)[C@H]([C@@H](C)O)NC1=O [3BP-4131] ({DOTA}-[X2]VYCE[dP]D[Bip]LTWSC-NH2; linker 4-13 via mXylylene)	< 10
CC(C)C[C@]1(C)NC(=O)[C@H](Cc2c[nH]c3ccccc23)NC(=O)[C@H](CC(=O)O)NC(=O)[C@H]2CCCN2C(=O)[C@H](CCC(=O)O)NC(=O)[C@@H](NC(=O)[C@H](Cc2ccc(O)cc2)NC(=O)[C@@H](NC(=O)CN2CCC(NC(=O)CN3CCN(CC(=O)O)CCN(CC(=O)O)CCN(CC(=O)O)CC3)CC2)C(C)C)CSCc2cccc(c2)CSC[C@@H](C(N)=O)NC(=O)[C@H](CO)NC(=O)[C@H](Cc2c[nH]c3ccccc23)NC(=O)[C@H]([C@@H](C)O)NC1=O [3BP-4106] ({DOTA}-[X2]VYCE[dP]DW[αMeL]TWSC-NH2; linker 4-13 via mXylylene)	10 to 79.4
CC(C)C[C@@H]1NC(=O)[C@H](Cc2ccc(NC(=O)c3ccncc3)cc2)NC(=O)[C@H](CC(=O)O)NC(=O)[C@H]2CCCN2C(=O)[C@H](CCC(=O)O)NC(=O)[C@@H](NC(=O)[C@H](Cc2ccc(O)cc2)NC(=O)[C@@H](NC(=O)CN2CCC(NC(=O)CN3CCN(CC(=O)O)CCN(CC(=O)O)CCN(CC(=O)O)CC3)CC2)C(C)C)CSCc2cccc(c2)CSC[C@@H](C(N)=O)NC(=O)[C@H](CO)NC(=O)[C@H](Cc2c[nH]c3ccccc23)NC(=O)[C@H]([C@@H](C)O)NC1=O [3BP-4183] ({DOTA}-[X2]VYCE[dP]D[Phe(4-NH2)](Isonicotinoyl)LTWSC-NH2; linker 4-13 via mXylylene)	100 to 794
CC(=O)N[C@H](C(=O)N[C@@H](Cc1ccc(O)cc1)C(=O)N[C@H]1CSCc2cccc(c2)CSC[C@@H](C(N)=O)NC(=O)[C@H](CO)NC(=O)[C@H](Cc2c[nH]c3ccccc23)NC(=O)[C@@H]2CC(=O)NCC[C@H](NC(=O)[C@H]3CCCN3C(=O)[C@H](CCC(=O)O)NC1=O)C(=O)N[C@@H](Cc1c[nH]c3ccccc13)C(=O)N[C@@H](CC(C)C)C(=O)N2)C(C)C [3BP-4050] (Ac-VYCE[dP][Dab]WLDWSC-NH2; linker 3-12 via mXylylene; lactam 6-9)	100 to 794
CC(C)C[C@@H]1NC(=O)[C@H](CSCc2ccccc2)NC(=O)[C@H](CC(=O)O)NC(=O)[C@H]2CCCN2C(=O)[C@H](CCC(=O)O)NC(=O)[C@@H](NC(=O)[C@H](Cc2ccc(O)cc2)NC(=O)[C@@H](NC(=O)CN2CCC(NC(=O)CN3CCN(CC(=O)O)CCN(CC(=O)O)CCN(CC(=O)O)CC3)CC2)C(C)C)CSCc2cccc(c2)CSC[C@@H](C(N)=O)NC(=O)[C@H](CO)NC(=O)[C@H](Cc2c[nH]c3ccccc23)NC(=O)[C@H]([C@@H](C)O)NC1=O [3BP-4130] ({DOTA}-[X2]VYCE[dP]DC(Bn)LTWSC-NH2; linker 4-13 via mXylylene)	< 10

same assay, conditions: FACS binding assay, HT-29 cells, competition with tracer 3BP-4149 (3 nM, Cy5-labeled), 4° C., 1 hour; read-out: pIC50 category (activity) (converted)

Compound	IC50 [nM]
CC(C)C[C@@H]1NC(=O)[C@H](Cc2ccc(NC(=O)C3(C#N)CC3)cc2)NC(=O)[C@H](CC(=O)O)NC(=O)[C@H]2CCCN2C(=O)[C@H](CCC(=O)O)NC(=O)[C@@H](NC(=O)[C@H](Cc2ccc(O)cc2)NC(=O)[C@@H](NC(=O)CN2CCC(NC(=O)CN3CCN(CC(=O)O)CCN(CC(=O)O)CCN(CC(=O)O)CC3)CC2)C(C)C)CSCc2cccc(c2)CSC[C@@H](C(N)=O)NC(=O)[C@H](CO)NC(=O)[C@H](Cc2c[nH]c3ccccc23)NC(=O)[C@H]([C@@H](C)O)NC1=O [3BP-4357] ({DOTA}-[X2]VYCE[dP]D[Phe(4-NH2)](Cyclopropanecarbonyl(1-CN))LTWSC-NH2; linker 4-13 via mXylylene)	100 to 794

same assay, conditions: FACS competition on HT-29 cells, Tracer ID 3BP-2776 (10 nM, biotin-labeled), 4° C., 1 hour; read-out: pIC50 category (activity) (converted)

Compound	IC50 [nM]
CC(=O)N[C@H](C(=O)N[C@@H](Cc1ccc(O)cc1)C(=O)N[C@H]1CSCc2cccc(c2)CSC[C@@H](C(N)=O)NC(=O)[C@H](CCC(N)=O)NC(=O)[C@H](Cc2c[nH]c3ccccc23)NC(=O)[C@H]([C@@H](C)O)NC(=O)[C@H](CC(C)C)NC(=O)C(Cc2c[nH]c3ccc(C)cc23)NC(=O)[C@H](CC(=O)O)NC(=O)CN(C)C(=O)[C@H](CCC(=O)O)NC1=O)C(C)C (stereo partly shown) [3BP-3290] (Ac-VYCE[Sar]D[ξTrp(5-Me)]LTWQC-NH2; linker 3-12 via mXylylene)	< 10
CC(C)CC(=O)N[C@@H](CO)C(=O)N[C@H]1CSCc2cccc(c2)CSC[C@@H](C(N)=O)NC(=O)[C@H](CCC(=O)NCCCNC(=O)COCCOCCNC(=O)CN2CCN(CC(=O)O)CCN(CC(=O)O)CCN(CC(=O)O)CC2)NC(=O)[C@H](Cc2c[nH]c3ccccc23)NC(=O)[C@H]([C@@H](C)O)NC(=O)[C@H](CC(C)C)NC(=O)[C@H](Cc2c[nH]c3ccccc23)NC(=O)[C@H](CC(=O)O)NC(=O)[C@H]2CCCN2C(=O)[C@H](CCC(=O)O)NC1=O [3BP-3743] (Isovaleryl-SCE[dP]DWLTWE(NH(CH2)3NH(O2Oc(DOTA)))C-NH2; linker 2-11 via mXylylene)	< 10
CC(=O)N[C@H](C(=O)N[C@@H](Cc1ccc(O)cc1)C(=O)N[C@H]1CSCc2cccc(c2)CSC[C@@H](C(N)=O)NC(=O)[C@H](CCC(N)=O)NC(=O)[C@H](Cc2c[nH]c3ccccc23)NC(=O)[C@H]([C@@H](C)O)NC(=O)[C@H](CC(C)C)NC(=O)[C@H](Cc2c[nH]c3ccc(O)cc23)NC(=O)[C@H](CC(=O)O)NC(=O)CN(C)C(=O)[C@H](CCC(=O)O)NC1=O)C(C)C [3BP-3310] (Ac-VYCE[Sar]D[Trp(5-OH)]LTWQC-NH2; linker 3-12 via mXylylene)	100 to 794
CC(=O)N[C@@H](Cc1ccc(O)cc1)C(=O)N[C@H]1CSCc2cccc(c2)CSC[C@@H](C(N)=O)NC(=O)[C@H](CCC(=O)NCCCNC(=O)CN2CCN(CC(=O)O)CCN(CC(=O)O)CCN(CC(=O)O)CC2)NC(=O)[C@H](Cc2c[nH]c3ccccc23)NC(=O)[C@H]([C@@H](C)O)NC(=O)[C@H](CC(C)C)NC(=O)[C@H](Cc2c[nH]c3ccccc23)NC(=O)[C@H](CC(=O)O)NC(=O)[C@H]2CCCN2C(=O)[C@H](CCC(=O)O)NC1=O [3BP-3841] (Ac-YCE[dP]DWLTWE(NH(CH2)3NHDOTA)C-NH2; linker 2-11 via mXylylene)	< 10
CC(=O)N[C@H](C(=O)N[C@@H](Cc1ccc(O)cc1)C(=O)N[C@H]1CSCc2cccc(c2)CSC[C@@H](C(N)=O)NC(=O)[C@H](CCC(N)=O)NC(=O)[C@H](Cc2c[nH]c3ccccc23)NC(=O)[C@H]([C@@H](C)O)NC(=O)[C@H](C(C)(C)C)NC(=O)[C@H](Cc2c[nH]c3ccccc23)NC(=O)[C@H](CC(=O)O)NC(=O)CNC(=O)[C@H](CCC(=O)O)NC1=O)C(C)C [3BP-3066] (Ac-VYCEGDW[Tle]TWQC-NH2; linker 3-12 via mXylylene)	10 to 79.4
CC(=O)N[C@@H](CO)C(=O)N[C@@H](CCCNC(=N)N)C(=O)N[C@H]1CSCc2cccc(c2)CSC[C@@H](C(N)=O)NC(=O)[C@H](CCC(=O)NCCCNC(=O)COCCOCCNC(=O)CN2CCN(CC(=O)O)CCN(CC(=O)O)CCN(CC(=O)O)CC2)NC(=O)[C@H](Cc2c[nH]c3ccccc23)NC(=O)[C@H]([C@@H](C)O)NC(=O)[C@H](CC(C)C)NC(=O)[C@H](Cc2c[nH]c3ccccc23)NC(=O)[C@H](CC(=O)O)NC(=O)[C@H]2CCCN2C(=O)[C@H](CCC(=O)O)NC1=O [3BP-3735] (Ac-SRCE[dP]DWLTWE(NH(CH2)3NH(O2Oc(DOTA)))C-NH2; linker 3-12 via mXylylene)	< 10
CSCC[C@H](NC(C)=O)C(=O)N[C@H](C(=O)N[C@@H](Cc1ccc(O)cc1)C(=O)N[C@H]1CSCc2cccc(c2)CSC[C@@H](C(N)=O)NC(=O)[C@H](CCC(N)=O)NC(=O)[C@H](Cc2c[nH]c3ccccc23)NC(=O)[C@H]([C@@H](C)O)NC(=O)[C@H](CC(C)C)NC(=O)[C@H](Cc2c[nH]c3ccccc23)NC(=O)[C@H](CC(=O)O)NC(=O)CNC(=O)[C@H](CCC(=O)O)NC1=O)C(C)C [3BP-2836] (Ac-MVYCEGDWLTWQC-NH2; linker 4-13 via mXylylene)	100 to 794
CC(=O)N[C@@H](C(=O)N[C@@H](Cc1ccc(O)cc1)C(=O)N[C@H]1CSCc2cccc(c2)CSC[C@@H](C(N)=O)NC(=O)[C@H](CCC(N)=O)NC(=O)[C@H](Cc2c[nH]c3ccccc23)NC(=O)[C@H]([C@@H](C)O)NC(=O)[C@H](CC(C)C)NC(=O)[C@H](Cc2c[nH]c3ccccc23)NC(=O)[C@H](CC(=O)O)NC(=O)CNC(=O)[C@H](CCC(=O)O)NC1=O)C(C)C [3BP-3043] (Ac-[dV]YCEGDWLTWQC-NH2; linker 3-12 via mXylylene)	10 to 79.4
